Reference: article PMC12029309, “Synthesis and Antifungal Activity of 1,2,4-Oxadiazole Derivatives” (Molecules, 2025)
Values after ≈ are worked out from the molar mass of the structure shown.

Assays:
Assay type in all cases: cell-based
[1] = tested on: F. graminearum; experiment: microbe, parasite or virus in culture; settings: Fusarium graminearum; for inhibition at 50 µg/mL: read-out: The Inhibition Rate (%) F. graminearum
[2] = tested on: E. turcicum; experiment: Mycelial growth inhibition test in vitro (E. turcicum); settings: Exserohilum turcicum; 50 μg/mL, mean ± SD of three replicates; read-out: The Inhibition Rate (%) E. turcicum
[3] = tested on: R. solani; experiment: microbe, parasite or virus in culture; settings: Rhizoctonia solani, read-out: The Inhibition Rate (%) R. solani
[4] = tested on: B. cinerea; experiment: Mycelial growth inhibition test in vitro (B. cinerea); settings: Botrytis cinerea; 50 μg/mL, mean ± SD of three replicates; read-out: The Inhibition Rate (%) B. cinerea
Description: (§1) The antifungal activity of the target compound was tested by the mycelial growth inhibition rate method. The compounds were detected at a concentration of 50 μg/mL, and carbendazim was used as the positive control. The antifungal activity was carried out according to literature reports. After drilling the mycelium (3 mm), it was inoculated into the PDA medium containing compounds, and the Petri dish was put into the incubator at 25 °C for 12-48 h; then, the colony diameter was measured with 50 index vernier caliper by the cross method, and the data were recorded. […] • A: The average diameter of the blank medium colony. • B: Diameter of mushroom cake (3 mm). • C: The average diameter of the colonies in the medium containing compound.

[5] = MTT cytotoxicity evaluation on MCF-7 cells; settings: human, range 0~100 μM
Description: (§2) Cells were incubated at 37 °C in an incubator with 5% CO2. Cell viability was determined using the MTT assay. Briefly, MCF-7 cell lines were seeded at 5000–8000 cells/well in 96-well plates. […] Following a continuous 24 h of incubation, the culture medium was replaced by 90 μL fresh culture medium, and 10 μL MTT solution was added.

[6] = tested on: C. capsica; experiment: Mycelial growth inhibition test in vitro (C. capsica); settings: Colletotrichum; 50 μg/mL, mean ± SD of three replicates; read-out: The Inhibition Rate (%) C. capsica
Description: as §1, with “compound. […] The PDA medium containing different concentrations of the compound was prepared by the two-fold dilution method, the final concentration of the compound in the medium was adjusted to 0-100.00 μg/mL, and three parallel samples were set for each concentration. […] The toxicity regression equation of the tested compound was obtained, taking the logarithm of compound concentration (lgc) as the independent variable (x) and the probability value of inhibition rate as the dependent variable (y), and the EC50 value of each tested compound was calculated.” for “compound.”

[7] = tested on: MCF-7 cell line; experiment: MTT cytotoxicity evaluation on MCF-7 cells; settings: 100 μM, 24 h
Description: as §2

SMILES: C(=C\c1nc(-c2ccccc2)no1)/c1ccccc1 [Compound 5a, (E)-3-Phenyl-5-styryl-1,2,4-oxadiazole]
- inhibition at 50 µg/mL [1]: < 10%
- inhibition at 50 µg/mL [2]: 21.1 ± 3.85%
- inhibition at 50 µg/mL [3]: 14.5 ± 6.32%
- inhibition at 50 µg/mL [4]: < 10%

SMILES: COc1cc(-c2noc(-c3ccc(C(C)(C)C)cc3)n2)cc(OC)c1OC [Compound 4u, 5-(4-(tert-Butyl)phenyl)-3-(3,4,5-trimethoxyphenyl)-1,2,4-oxadiazole]
- IC50 at 24 h [5]: ≥ 100 µM
- inhibition at 50 µg/mL [1]: < 10%
- inhibition at 50 µg/mL [2]: < 10%
- inhibition at 50 µg/mL [3]: < 10%
- inhibition at 50 µg/mL [4]: < 10%
- inhibition at 50 µg/mL [6]: < 10%

SMILES: COc1ccc(-c2nc(-c3ccc(OC)c(OC)c3)no2)cc1 [Compound 4w, 3-(3,4-Dimethoxyphenyl)-5-(4-methoxyphenyl)-1,2,4-oxadiazole]
- inhibition at 50 µg/mL [1]: < 10%
- inhibition at 50 µg/mL [2]: < 10%
- inhibition at 50 µg/mL [3]: < 10%
- inhibition at 50 µg/mL [4]: < 10%
- inhibition at 50 µg/mL [6]: < 10%

SMILES: COc1ccc(-c2nc(-c3ccccc3)no2)cc1OC [Compound 4b, 5-(3,4-Dimethoxyphenyl)-3-phenyl-1,2,4-oxadiazole]
- inhibition at 50 µg/mL [1]: 23.8 ± 7.22%
- inhibition at 50 µg/mL [2]: 60.4 ± 1.68%
- inhibition at 50 µg/mL [3]: 18.7 ± 5.82%
- inhibition at 50 µg/mL [4]: < 10%
- inhibition at 50 µg/mL [6]: < 10%

SMILES: COc1cc(/C=C/c2nc(-c3ccccc3)no2)cc(OC)c1OC [Compound 5b, (E)-3-Phenyl-5-(3,4,5-trimethoxystyryl)-1,2,4-oxadiazole]
- IC50 at 24 h [5]: ≥ 100 µM
- inhibition at 50 µg/mL [1]: 36.1 ± 1.67%
- inhibition at 50 µg/mL [2]: 31.8 ± 1.44%
- inhibition at 50 µg/mL [3]: 21.2 ± 2.78%
- inhibition at 50 µg/mL [4]: 30.2 ± 6.4%
- inhibition at 50 µg/mL [6]: 20.6 ± 4.48%

SMILES: O=[N+]([O-])c1ccc(-c2nc(-c3ccccc3)no2)cc1 [Compound 4i, 5-(4-Nitrophenyl)-3-phenyl-1,2,4-oxadiazole]
- cell survival rate of MCF-7 cells [7]: significant cell proliferation
- inhibition at 50 µg/mL [1]: < 10%
- inhibition at 50 µg/mL [2]: < 10%
- inhibition at 50 µg/mL [3]: < 10%
- inhibition at 50 µg/mL [4]: < 10%

SMILES: COc1ccc(-c2noc(-c3ccc(C(C)(C)C)cc3)n2)cc1OC [Compound 4n, 5-(4-(tert-Butyl)phenyl)-3-(3,4-dimethoxyphenyl)-1,2,4-oxadiazole]
- IC50 at 24 h [5]: ≥ 100 µM
- inhibition at 50 µg/mL [1]: < 10%
- inhibition at 50 µg/mL [2]: 29.8 ± 1.26%
- inhibition at 50 µg/mL [3]: < 10%
- inhibition at 50 µg/mL [4]: < 10%
- inhibition at 50 µg/mL [6]: < 10%

SMILES: FC(F)(F)c1ccc(-c2nc(-c3ccccc3)no2)cc1 [Compound 4h, 3-Phenyl-5-(4-(trifluoromethyl)phenyl)-1,2,4-oxadiazole]
- inhibition at 50 µg/mL [1]: 29 ± 8.54%
- inhibition at 50 µg/mL [2]: < 10%
- inhibition at 50 µg/mL [3]: < 10%
- inhibition at 50 µg/mL [4]: < 10%
- inhibition at 50 µg/mL [6]: < 10%

SMILES: COc1ccc(-c2noc(/C=C/c3ccccc3)n2)cc1OC [Compound 5e, (E)-3-(3,4-Dimethoxyphenyl)-5-styryl-1,2,4-oxadiazole]
- cell survival rate of MCF-7 cells [7]: significant cell proliferation
- inhibition at 50 µg/mL [1]: 28.7 ± 5.14%
- inhibition at 50 µg/mL [2]: 29.4 ± 2.05%
- inhibition at 50 µg/mL [3]: 23.9 ± 0.59%
- inhibition at 50 µg/mL [4]: 30.6 ± 1.43%
- inhibition at 50 µg/mL [6]: < 10%

SMILES: COc1ccc(-c2noc(-c3ccc(C(C)(C)C)cc3)n2)cc1 [Compound 4l, 5-(4-(tert-Butyl)phenyl)-3-(4-methoxyphenyl)-1,2,4-oxadiazole]
- cell survival rate of MCF-7 cells [7]: significant cell proliferation
- inhibition at 50 µg/mL [1]: 27.6 ± 1.78%
- inhibition at 50 µg/mL [2]: 24.2 ± 3.77%
- inhibition at 50 µg/mL [3]: < 10%
- inhibition at 50 µg/mL [4]: < 10%
- inhibition at 50 µg/mL [6]: < 10%

SMILES: Oc1cccc(-c2nc(-c3ccccc3)no2)c1 [Compound 4d, 3-(3-Phenyl-1,2,4-oxadiazol-5-yl) phenol]
- IC50 at 24 h [5]: ≥ 100 µM
- inhibition at 50 µg/mL [1]: 40.2 ± 1.5%
- inhibition at 50 µg/mL [2]: 46.1 ± 0.74%
- inhibition at 50 µg/mL [3]: 18.6 ± 2.71%
- inhibition at 50 µg/mL [4]: 36.8 ± 9.53%
- inhibition at 50 µg/mL [6]: 22.3 ± 2.97%

SMILES: COc1ccc(-c2noc(-c3cccc(O)c3)n2)cc1OC [Compound 4o, 3-(3-(3,4-Dimethoxyphenyl)-1,2,4-oxadiazol-5-yl)phenol]
- inhibition at 50 µg/mL [1]: 55.1 ± 2.99%
- inhibition at 50 µg/mL [2]: 28.1 ± 1.65%
- inhibition at 50 µg/mL [3]: 24.4 ± 1.65%
- inhibition at 50 µg/mL [4]: < 10%
- inhibition at 50 µg/mL [6]: 20.8 ± 0.59%

SMILES: COc1cc(-c2noc(-c3ccc(Cl)cc3)n2)cc(OC)c1OC [Compound 4s, 5-(4-Chlorophenyl)-3-(3,4,5-trimethoxyphenyl)-1,2,4-oxadiazole]
- inhibition at 50 µg/mL [1]: < 10%
- inhibition at 50 µg/mL [2]: < 10%
- inhibition at 50 µg/mL [3]: < 10%
- inhibition at 50 µg/mL [4]: < 10%
- inhibition at 50 µg/mL [6]: < 10%

SMILES: Clc1ccc(-c2nc(-c3ccccc3)no2)cc1 [Compound 4a, 5-(4-Chlorophenyl)-3-phenyl-1,2,4-oxadiazole]
- inhibition at 50 µg/mL [1]: 19.1 ± 7.15%
- inhibition at 50 µg/mL [2]: 17.5 ± 2.68%
- inhibition at 50 µg/mL [3]: < 10%
- inhibition at 50 µg/mL [4]: < 10%

SMILES: COc1cc(-c2noc(-c3cccc(O)c3)n2)cc(OC)c1OC [Compound 4v, 3-(3-(3,4,5-Trimethoxyphenyl)-1,2,4-oxadiazol-5-yl) phenol]
- inhibition at 50 µg/mL [1]: 26.1 ± 9.47%
- inhibition at 50 µg/mL [2]: 15.5 ± 3.53%
- inhibition at 50 µg/mL [3]: < 10%
- inhibition at 50 µg/mL [4]: < 10%
- inhibition at 50 µg/mL [6]: < 10%

SMILES: Clc1ccc(/C=C/c2nc(-c3ccccc3)no2)cc1 [Compound 5c, (E)-5-(4-Chlorostyryl)-3-phenyl-1,2,4-oxadiazole]
- cell survival rate of MCF-7 cells [7]: significant cell proliferation
- inhibition at 50 µg/mL [1]: < 10%
- inhibition at 50 µg/mL [2]: < 10%
- inhibition at 50 µg/mL [3]: < 10%
- inhibition at 50 µg/mL [4]: < 10%

SMILES: COc1ccc(-c2noc(/C=C/c3ccccc3)n2)cc1 [Compound 5d, (E)-3-(4-Methoxyphenyl)-5-styryl-1,2,4-oxadiazole]
- inhibition at 50 µg/mL [1]: 19 ± 7.4%
- inhibition at 50 µg/mL [2]: 19.2 ± 2.39%
- inhibition at 50 µg/mL [3]: < 10%
- inhibition at 50 µg/mL [4]: 21.7 ± 6.82%

SMILES: CC(C)(C)c1ccc(-c2nc(-c3ccccc3)no2)cc1 [Compound 4c, 5-(4-(tert-Butyl)phenyl)-3-phenyl-1,2,4-oxadiazole]
- inhibition at 50 µg/mL [1]: 33.5 ± 3.88%
- inhibition at 50 µg/mL [2]: 30.1 ± 1.95%
- inhibition at 50 µg/mL [3]: 10.7 ± 3.54%
- inhibition at 50 µg/mL [4]: < 10%
- inhibition at 50 µg/mL [6]: < 10%

SMILES: Oc1cc(-c2nc(-c3ccccc3)no2)cc(O)c1O [Compound 4g, 5-(3-Phenyl-1,2,4-oxadiazol-5-yl) benzene-1,2,3-triol]
- EC50 ([1]; read-out: EC50 (μg/mL) F. graminearum): 80.5 µg/mL (≈ 298 µM)
- inhibition at 50 µg/mL [1]: 56.9 ± 6.74%
- inhibition at 50 µg/mL [2]: 38.7 ± 1%
- inhibition at 50 µg/mL [3]: 39.9 ± 3.44%
- inhibition at 50 µg/mL [4]: < 10%
- inhibition at 50 µg/mL [6]: 47.6 ± 1.05%

SMILES: COc1ccc(-c2noc(-c3ccc(Cl)cc3)n2)cc1OC [Compound 4m, 5-(4-Chlorophenyl)-3-(3,4-dimethoxyphenyl)-1,2,4-oxadiazole]
- inhibition at 50 µg/mL [1]: < 10%
- inhibition at 50 µg/mL [2]: 15.2 ± 0.77%
- inhibition at 50 µg/mL [3]: 11.7 ± 5.11%

SMILES: COc1ccc(-c2nc(-c3cc(OC)c(OC)c(OC)c3)no2)cc1OC [Compound 4t, 5-(3,4-Dimethoxyphenyl)-3-(3,4,5-trimethoxyphenyl)-1,2,4-oxadiazole]
- cell survival rate of MCF-7 cells [7]: significant cell proliferation
- inhibition at 50 µg/mL [1]: 28.3 ± 2.19%
- inhibition at 50 µg/mL [2]: < 10%
- inhibition at 50 µg/mL [3]: < 10%
- inhibition at 50 µg/mL [4]: < 10%

SMILES: COc1ccc(-c2noc(-c3ccc(OC)c(OC)c3)n2)cc1 [Compound 4k, 5-(3,4-Dimethoxyphenyl)-3-(4-methoxyphenyl)-1,2,4-oxadiazole]
- inhibition at 50 µg/mL [1]: 21.7 ± 2.53%
- inhibition at 50 µg/mL [2]: < 10%
- inhibition at 50 µg/mL [3]: 22.6 ± 8.85%
- inhibition at 50 µg/mL [4]: < 10%
- inhibition at 50 µg/mL [6]: < 10%

SMILES: Oc1cc(O)cc(-c2nc(-c3ccccc3)no2)c1 [Compound 4e, 5-(3-Phenyl-1,2,4-oxadiazol-5-yl) benzene-1,3-diol]
- IC50 at 24 h [5]: ≥ 100 µM
- inhibition at 50 µg/mL [1]: 30.1 ± 4.51%
- inhibition at 50 µg/mL [2]: 26.5 ± 3.09%
- inhibition at 50 µg/mL [3]: 16.6 ± 1.47%
- inhibition at 50 µg/mL [4]: < 10%
- inhibition at 50 µg/mL [6]: 18.8 ± 3.1%

SMILES: COc1ccc(-c2noc(-c3ccc(Cl)cc3)n2)cc1 [Compound 4j, 5-(4-Chlorophenyl)-3-(4-methoxyphenyl)-1,2,4-oxadiazole]
- inhibition at 50 µg/mL [1]: < 10%
- inhibition at 50 µg/mL [2]: < 10%
- inhibition at 50 µg/mL [3]: < 10%
- inhibition at 50 µg/mL [4]: < 10%
- inhibition at 50 µg/mL [6]: < 10%
